Entries after “also recorded” stand apart in the source; their conditions may differ. Marks after values point to notes of the source that are not given here.
Columns and labels:
[1] = system: rat left atria; assay: Reversal or prevention of 2-APB-induced SMA in superfused rat left atria; settings: for effect on 2-APB-induced sporadic ectopic activity (SMA): titration after appearance of SMA, absence of pacing
Description: (A) Titration curve of ranolazine reversal of SMA in superfused left atrial appendage. Superfused appendages (n=7) were treated with 2-APB and following the appearance of SMA they were titrated with increasing concentrations of ranolazine for 3-5 min at any concentration. Rates of SMA in the absence of pacing were recorded. (B) Typical raw mechanical data for an appendage treated with 2-APB and then with 0, 10 or 80 μM ranolazine. All data are in the absence of pacing. […]
To test whether an anion transport inhibitor affected SMA, atria (n=7) were paced at 0.1 Hz in KH and exposed to 15 μM 2-APB. Following the appearance of SMA, they were titrated with 100 to 400 μM DIDS for 3 to 5 min at each concentration. Whether SMA occurred at the end of each titration period was recorded.
In these experiments, a 2-APB model system was used to simulate abnormal automaticity. Specifically, paced (0.1 Hz) superfused left atria were treated with 2-APB (20 μM) and the pacing stimulus was stopped after the appearance of SMA. SKF-96365 (25 μM) was then added to the superfusate and the effect on SMA was measured.
(§1) Additional experiments determined the concentration-dependence of SKF-96365 inhibtion of SMA. These experiments were performed as described above except that various concentrations of SKF-96365 were added to the left atrial superfusate (about 10-65 μM).
In these experiments, a 2-APB model system was used to simulate abnormal automaticity. Specifically, superfused left atria were exposed to 0 or to 50 μM SKF-96365 for 10 min. Following this pre-incubation, muscles were titrated with increasing concentrations of 2-APB (0-30 μM) and the rate of SMA was measured about 10 min later in the absence of pacing.

[2] = system: rat left atria; settings: 25 nM ATX II
[3] = system: isolated rat left atria; assay: Pharmacological activation of spontaneous tachycardic activity (STA): calcium-loading agents with or without 2-APB; settings: for ectopic activity / mechanical stability without 2-APB / effect on left atrial force of contraction: agent without 2-APB, at the concentration given; for T0.5R (time to 50% relaxation) / T0.9R (time to 90% relaxation) / TPT (time to peak tension) / SMA Rate: concentrations per footnote; for Force Post: mg force per g atrial wet weight following a 10 min exposure to the agent; for Force Pre: mg force per g atrial wet weight prior to exposure to the agent; for SMA Rate: spontaneous atrial mechanical events
Description: Male Sprague-Dawley rats (325-400 g) were anesthetized with intra-peritoneal pentobarbital (0.1 g/kg). Their right and left atria were isolated, superfused at 30° C. in Krebs-Henseleit buffer, and nearly isometric forces of contraction were measured from these muscles (Wolkowicz et al., 2002). 2-APB was prepared as a 150 mM dimethyl sulfoxide stock.
Left atria (n=8 per group) were paced at 3 Hz and (i) titrated with 0 to 30 nM isoproterenol (Ahlquist, 1970) or (ii) exposed to 3 μM forskolin (Laurenza et al., 1980). Left atrial force and frequency of contraction, the time to peak tension and relaxation times were recorded after a 3-5 min exposure to forskolin or to any concentration of isoproterenol. The 3 Hz pacing stimulus was interrupted at the end of these protocols to measure SMA. […]
Left atrial contraction and relaxation times were recorded at these five times, the pacing stimulus was stopped and rates of SMA were recorded. […] Atrial mechanical function was measured at these four times; the pacing stimulus then was stopped and rates of SMA were recorded.
Left atria (n=6 per group) were paced at 3 Hz, titrated with 0 to 300 nM (−)BayK 8644 ([…]-1,4-Dihydro-2,6-dimethyl-5-nitro-4-[2-(trifluormethyl)phenyl]-3-pyridinecarboxylic acid methyl ester; Franckowiak et al. 1985) or FPL-64176 (2,5-Dimethyl-4-[2-(phenylmethyl)benzoyl]-1H-pyrrole-3-carboxlic acid methyl ester); Zheng et al., 1991) and their mechanical function and rates of SMA were recorded after a 5 min exposure to any concentration of slow calcium channel activator.
Atrial mechanical function was recorded at this time; the pacing stimulus then was stopped and rates of SMA were recorded. […]
Left atria (n=7) were paced at 3 Hz, treated with 120 μM ouabain (Illanes and Marshall, 1964), and any change in mechanical function was recorded at a new steady state, ˜10 min later. […]

[4] = system: rat right atria; assay: Right atrial spontaneous contraction frequency
Description: (§2) Left atria (n=9) were paced at 0.1 Hz, treated with 300 nM BayK 8644 for 5 min, then with 20 μM 2-APB for 10 min, and the pacing stimulus was stopped. These preparations then were incubated with six increasing concentrations of zatebradine (10-100 μM) for 3-5 min at each concentration, and rates of SMA were recorded. Untreated right atria (n=9) also were titrated with zatebradine and its effect on contraction frequency was recorded.
(§3) To test whether zatebradine affects the SMA occurring in the presence of 2-APB and isoproterenol, left atria (n=7) were paced at 0.1 Hz, treated with 30 nM isoproterenol for 5 min, then with 20 μM 2-APB for 10 min, and the pacing stimulus was stopped. Rates of SMA were recorded, these left atria were exposed to 70 μM zatebradine for 10 min, and rates of SMA were recorded again. A group of right atria (n=7) also were exposed to 30 nM isoproterenol for 5 min and then to 70 μM zatebradine for 10 min. Right atrial contraction frequency was recorded at these two times.
(§4) To test whether ZD-7288, an If inhibitor structurally unrelated to zatebradine (Baruscotti et al., 2005; Sanders et al., 2006) affects the SMA occurring in the presence of 2-APB and BayK 8644, rat left atria (n=7) were treated with 300 nM BayK 8644 for 5 min, then with 20 μM 2-APB for 10 min, and the rates of ectopic activity were recorded. These atria then were incubated with six increasing concentrations of ZD-7288 (10-100 μM) for 3-5 min at each concentration, and the rates of SMA were recorded. Right atria (n=7) were titrated similarly with ZD-7288 (0-100 μM) and the change in their contraction frequency was recorded.

[5] = system: rat left atria; assay: Suppression of STA induced by 2-APB plus BayK 8644 or isoproterenol in left atria
Description: 3 Hz-paced left atria (n=9 per group) were superfused (i) in Krebs-Henseleit alone or (ii) they were treated with 20 μM 2-APB for 10 min, (iii) with 300 nM BayK 8644 for 10 min and with 20 μM 2-APB for 10 min, or (iv) they were treated with 300 nM BayK 8644 and 20 μM 2-APB for 10 min, then with 70 μM zatebradine (3-[3-[[2-(3,4-Dimethoxyphenyl)ethyl]methyl amino]propyl]-1,3,4,5-tetrahydro-7,8,-dimethoxy-2H-3-benzazepin-2-one hydrochloride) for 10 min (Baruscotti et al., 2005). Pacing was interrupted at these times and rates of SMA were recorded.
as §2
To test whether zatebradine affects left atrial force of contraction, two groups of left atria (n=9 per group) were paced at 3 Hz and treated with 300 nM BayK 8644. Five minutes later one group was incubated with six increasing concentrations of zatebradine (10-100 μM) for 3-5 min at each concentration, and forces of contraction were recorded. A second group was treated with BayK 8644 but not zatebradine, and forces of contraction were recorded at corresponding times.
as §3, §4
In these experiments, a 2-APB model system was used to simulate tachycardic abnormal automaticity. Specifically, superfused left atria were treated sequentially with 300 nM BayK 8644, an activator of voltage-dependent calcium entry, which loads myocytes with calcium, and then with 2-APB (20 μM) to activate the putative myocyte system for abnormal automaticity. […] SKF-96365 (10 μM) was added to the superfusate. SKF-96365 reversed STA in these left atria within 2-3 min and the muscle became quiescent in the absence of pacing (FIG. 34, “Rest”).
as §1, with “inhibition” for “inhibtion”, “STA.” for “SMA.”, “10-70” for “10-65”, “μM). Exposing left atria to various concentrations of SKF-96365 reversed STA (FIG. 35).” for “μM).”

Compound	ectopic activity / mechanical stability without 2-APB [3]	effect on left atrial force of contraction [3]	T0.5R (time to 50% relaxation) [3]	T0.9R (time to 90% relaxation) [3]	TPT (time to peak tension) [3]	Force Post [3]	Force Pre [3] [mg/gww]	SMA Rate [3] [SMEs per minute]	further results
CCN(CC)CC(=O)Nc1c(C)cccc1C [lidocaine]	–	–	–	–	–	–	–	–	effect on 2-APB-induced sporadic ectopic activity (SMA) [1]: suppress this arrhythmic activity
COc1ccc(CCN(C)CCCC(C#N)(c2ccc(OC)c(OC)c2)C(C)C)cc1OC (stereo not drawn) [verapamil]	–	–	–	–	–	–	–	–	triggered events after exposure to verapamil ([2]; 10 μM verapamil for 5 min, expanded scale): continued presence of triggered events; effect on left atrial force of contraction / mechanical performance (titration) ([2]; 1 Hz-paced, ~5 min at each concentration): markedly decreased contractile force; effect on the rate of triggered activity (titration) ([2]; verapamil 2 to 20 μM, ~5 min at each concentration): did not affect the rate of triggered activity
CC(C)NCC(O)c1ccc(O)c(O)c1 (stereo not drawn) [isoproterenol]	does not produce ectopic activity	increases their force of contraction	29.3^‡ msc	58.7^‡ msc	45.0^‡ msc	104* mg/gww	31	0	rate of spontaneous tachycardic activity in the absence of pacing ([3]; 22 μM 2-APB-treated appendage plus 30 nM isoproterenol, 30° C.): ~230 contractions/min; right atrial contraction frequency ([4]; 30 nM isoproterenol for 5 min): 276±11.4 contractions/min
C=C[C@@]1(C)CC(=O)[C@]2(O)[C@@]3(C)[C@@H](O)CCC(C)(C)[C@@H]3[C@H](O)[C@H](OC(C)=O)[C@@]2(C)O1 [forskolin]	–	–	28.7^‡ msc	58.4^‡ msc	44.6* msc	62* mg/gww	21	0	–
O=C(NCC1CCCCN1)c1cc(OCC(F)(F)F)ccc1OCC(F)(F)F (stereo not drawn) [flecainide]	–	–	–	–	–	–	–	–	effect on 2-APB-induced sporadic ectopic activity (SMA) [1]: suppress this arrhythmic activity
COC(=O)C1=C(C)NC(C)=C([N+](=O)[O-])[C@H]1c1ccccc1C(F)(F)F [BayK 8644, (45)-1,4-Dihydro-2,6-dimethyl-5-nitro-4-[2-(trifluormethyl)phenyl]-3-pyridinecarboxylic acid methyl ester]	does not produce ectopic activity	increases their force of contraction	35.2 msc	73.2 msc	54.1 msc	83* mg/gww	33	0	–
Anemonia sulcata Toxin II [ATX II]	–	–	–	–	–	–	–	–	induction of triggered activity (contractile doublets) ([2]; left atria paced at 1 Hz): triggered activity is induced
CCN(c1ccccc1)c1cc(NC)[n+](C)c(C)n1.[Cl-] [ZD-7288]	–	–	–	–	–	–	–	–	effect on STA initiated by BayK 8644 and 2-APB ([5]; 300 nM BayK 8644 + 20 μM 2-APB, zatebradine 70 μM, ZD-7288 10-100 μM, SKF-96365 about 10-70 μM): decreases left atrial STA; effect on right atrial contraction frequency ([4]; ZD-7288 0-100 μM): decreases right atrial contraction frequency less robustly than zatebradine
COC(=O)c1c(C)[nH]c(C)c1C(=O)c1ccccc1Cc1ccccc1 [FPL-64176, 2,5-Dimethyl-4-[2-(phenylmethyl)benzoyl]-1H-pyrrole-3-carboxlic acid methyl ester]	does not produce ectopic activity	increases their force of contraction	35.3 msc	73.3 msc	52.8 msc	68* mg/gww	30	0	–
O=S(=O)(O)c1cc(N=C=S)ccc1C=Cc1ccc(N=C=S)cc1S(=O)(=O)O [DIDS, 4,4′-diisothiocyanatostilbene-2,2′-disulfonic acid]	–	–	–	–	–	–	–	–	DIDS concentration that reversed SMA completely ([1]; 15 μM 2-APB, 0.1 Hz, 3 to 5 min at each DIDS concentration): > 300 µM
ryanodine	no STA occurs	Time-dependent decreases in force of contraction	–	–	–	–	–	–	–
COc1ccccc1OCC(O)CN1CCN(CC(=O)Nc2c(C)cccc2C)CC1 (stereo not drawn) [ranolazine, N-(2,6-dimethylphenyl)-2-[4-[2-hydroxy-3-(2-methoxyphenoxy)propyl]piperazin-1-yl]acetamide]	–	–	–	–	–	–	–	–	effect on 2-APB-induced sporadic ectopic activity (SMA) [1]: prevent the sporadic ectopic activity; effect on 2-APB-induced sporadic ectopic activity (SMA) ([1]; listed as Ranolazine): blocks ectopic activity; effect on tachycardic activity with high calcium loads ([5]; data not shown): suppresses, but does not completely prevent
C[C@@H]1O[C@@H](O[C@H]2C[C@@H](O)[C@]3(CO)[C@H]4[C@H](O)C[C@]5(C)[C@@H](C6=CC(=O)OC6)CC[C@]5(O)[C@@H]4CC[C@]3(O)C2)[C@H](O)[C@H](O)[C@H]1O [ouabain]	does not produce ectopic activity; also recorded: does not affect their mechanical stability	increases their force of contraction; also recorded: doubles their force of contraction	–	–	–	–	–	–	–
